Source: paper PMC9365994, “Small molecules to regulate the GH/IGF1 axis by inhibiting the growth hormone receptor synthesis” (Frontiers in Endocrinology, 2022)

Columns and labels:
[1] = system: GH-induced GHR-Jak2-Stat5 signaling in IM9 lymphoblasts; test: Flow cytometric (FACS) pSTAT5 test, GH-induced, IM9 cells in whole blood; settings: drugs 50 µM for 15 MIN
Description: First round: The PerFix EXPOSE (Beckman Coulter), was used to fix and permeabilize cells according to the optimized procedure described in Malergue et al., 2015 ([36]). Samples were analyzed in FC500 MPL. Data were analyzed with Kaluza software (Beckman Coulter). Second round: the PerFix EXPOSE was used according to the IFU and samples were analyzed in a Navios Cytometer. The first screening used pure IM-9 cells, whereas in the second round they were spiked in 100 µL whole blood (EDTA tubes). 15 min after the inhibitory compounds, the activators were added for 20-30 min.
In short: A mixture of blood and
IM9 human lymphoblast was incubated with the drugs (50 µM) for 15 MIN; GH and GM-CSF
were added 7 min before the cells were fixed with formaldehyde. Blood cells are sensitive to
GM-CSF, and not to GH; IM9 cells are sensitive to GH. A mixture of three antibodies in three
colors; CD14-FITC, CD34-PE and p-Stat5-Alexa 647 was used to analyze the p-Stat5 levels
of monocytes and IM9 cells.
Fig. S8A. FACS plots of compounds that inhibit GH-induced GHR-Jak2-Stat5 signaling in IM9 lymphoblasts.
The end point of the signaling cascade is measured by assessing the phosphorylation status of STAT5.
Stat5. Conc of drugs: 1 mM; incubation time 30 min
Fig. S8B. […]
point of the signaling cascade is measured by assessing the phosphorylation status of STAT5.

[2] = system: phosphorylated fos-GHRct (fos-GHRct/Jak2 signaling); test: Cell based primary screen: immune fluorescence (anti-GHR, anti-pY, anti-pJak2, anti-pSTAT5) of fos-GHRct-transfected γ2A iJak2 cells; set-up: species or system human; settings: for IC50: Homo sapiens, Table_2.xlsx, second analogue set, read-out: GHR INHIBITORS, BM#, IC50
Description: Drug handling and cell-based assays are detailed in Supplementary Data 1 , automation. High-Content StratoMineR ([35]). After incubation with the compounds, the cells were fixed and the fluorescence (anti-GHR, anti-pY, anti-pJak2, anti-pSTAT5) was quantitated.
As it was unknown whether the GH/IGF1 axis is druggable, we designed a broad strategy based on our previous studies in which soluble fos-zipped GHR cytosolic tails (fos-GHRct) can serve as signaling complexes if co-expressed with Jak ([32], [39]). Fos-GHRct expressed without Jak2 is immediately degraded by the ubiquitin pathway. Phosphorylated fos-GHRct (fos-pGHRct) detaches from Jak2 and unzips. Only unzipped fos-pGHRct are protected from proteasomal degradation and accumulate in the cell. […] For 6 scenarios the signal will be decreased: (1) inhibition of Jak2 kinase activity, (2) inhibition of fos-GHRct expression, (3) inhibition of the fos-GHRct : Jak2 interaction, (4) increased degradation of fos-pGHRct, (5) increased degradation of Jak2, and (6) dephosphorylation of fos-pGHRct ([32], [39]).
Figure 1 Diagram of the primary screen. […] If fos-GHRct and Jak2 bind via FERM and box-1, Jak2 gets activated and phosphorylates itself, the dimerized fos-GHRct and STAT5b. After phosphorylation of fos-GHRct, Jak2 and STAT5, the complex dissociates. As fos-pGHRct is protease-resistant, it accumulates in the cells. Unphosphorylated fos-GHRct is rapidly degraded. Steady state levels of fos-pGHRct are lower if one of the 6 scenarios is valid. The cell-based assay was performed in γ2A cells carrying inducible Jak2 (iJak2) or binding-deficient iJak2 Y119E (as control) ( Figure 2 ). […]
1. Cell based primary screen
The assay was based on Fos-zippered GHR cytosolic tails (fos-GHRct) subsequently acting […]
Fig S1A. Immune Fluorescence staining of γ2a Fig S1B. Immune Fluorescence staining of γ2a monoclonal cell line stably transfected with an monoclonal cell line stably transfected with an inducible Jak2 WT expression construct. inducible Jak2 Y119E expression construct. aim we used a human fibroblast cell line
From this line we generated doxycycline inducible Jak2 clones, expressing either wild type Jak2 or Y119E mutant Jak2 whose FERM domain does […]
To establish a sensitive test, sufficient […]
control the system, we used fos-GHRct mutated in box-1 or the cell line expressing mutant (Y119E) Jak2. The box-1 motif is the binding site of Jak2 in GHR; mutation of this motif (all four proline into alanine) is known to reduce the binding between GHR and Jak2. In the primary screen we measured 4 different signals: fos-GHRct (anti-GHR), tyrosine phosphorylated fos-GHRct (anti-pY), tyrosine phosphorylated Jak2 (anti-pY or anti- […]
inhibition of either fos-GHRct stabilization or fos-GHRct synthesis, are considered positive.
Immunoblots are not appropriate for high throughput screening. Using fos-GHRct-transfected cells as in Fig. S3 and pY-specific primary antibodies, we developed a high throughput screening assay based on pY-fos-GHRct immune fluorescent detection in 384-well plates with automated microscopy. […]
panel). From left to right: Dapi staining to visualize nuclei, fos-GHRct staining: GHRtails are detected by […]

[3] = system: MM231; set-up: method as in PMID 28576744, PMID 17463090; settings: cited from earlier work
[4] = system: hGH; test: Steady state hGH in hGH-transfected Y2A cells (general protein synthesis); type: cell-based, human; settings: drug treatment overnight (10 µM); CHX 40 µg/ml
From the text: Figure S14. The best 5 compounds from the dose-response curves were used to test their effect on cell proliferation. They inhibit proliferation of triple negative human breast cancer (MDA-MB-231) cells and colon […]
8. Effect of selected drugs on GH synthesis […]
intracellular steady state concentration of a secretory glycoprotein (human growth hormone, hGH): its steady state is the result of synthesis, glycosylation, intracellular transport and […]
amount of hGH, while none of the compounds changed the steady state concentration in the […]
Figure S15. Y2A cells were transfected with 5 µg of a hGH-pcDNA construct in a 24-well plate; drug treatment overnight (10 µM) as indicated (CHX, cycloheximide 40 µg/ml). […]
control drug, 10 µM. Right lane: human GH 20 ng (control). Only cycloheximide decreased the steady state concentration of hGH in the cells. hGH in the lysates was detected with a rabbit anti-GH antibody.
Furqan, M., N. Mukhi, B. Lee, and D. Liu. 2013. Dysregulation of JAK-STAT pathway in hematological malignancies and JAK inhibitors for clinical application. Biomarker research. 1:5.
Malergue, F., A. van Agthoven, C. Scifo, D. Egan, and G.J. Strous. 2015. Automation of a phospho-STAT5 staining procedure for flow cytometry for application in drug discovery. J Biomol Screen. 20:416-421.
Nespital, T., L.M. van der Velden, A. Mensinga, E.D. van der Vaart, and G.J. Strous. 2016. […]

[5] = system: COLO-205 human colon cancer cells; set-up: method as in PMID 15736405; settings: cited from earlier work

Compound | IC50 [2] [nM] | further results
O=C1C(Cl)=C/C(=N/S(=O)(=O)c2cccs2)c2ccccc21 [AQ-390/41647621] |  | inhibition in the FACS assay [1]: > 30%
CCOC(=O)CCOc1c(OC)cc(NCc2ccc3nc(N)nc(N)c3c2C)cc1OC [BM005] | 200 | 
Cc1nc(N)nc(N)c1CCC(C)c1ccc(F)cc1 (stereo not drawn) [BM006] | 200 | 
CC(C)(/C=C/c1c(N)nc(N)nc1CCC(F)(F)F)c1ccc(C(F)(F)F)cc1 [BM007] | 400 | 
Cc1cc(C)cc(-c2ccc3nc(N)nc(N)c3c2C)c1 [BM008] | 500 | 
Nc1nc(N)c2c(ccc3c2ccn3CC2CC2)n1 [BM009] | 600 | 
Cc1nc(N)nc(NCc2ccccn2)c1/C=C/C(C)(C)c1ccc(C(F)(F)F)cc1 [BM010] | 800 | 
Cc1c(-c2cccc(S(C)(=O)=O)c2)ccc2nc(N)nc(N)c12 [BM011] | 900 | 
Cc1c(-c2cccc(C(F)(F)F)c2)ccc2nc(N)nc(N)c12 [BM013] | 900 | 
CC1(C)Cc2ccc3nc(N)nc(N)c3c2O1 [BM014] | 900 | 
CCn1c(C(=O)N(C2CC2)C2CC2)cc2c3c(ncn3C)c(Nc3cc(C)n(C)n3)nc21 [BMS-911543, reference compound] |  | IC50, percentage pY positive cells ([2]; γ2A cells treated for 24 h, Fig S5): nanomolar range
Cc1ccc(S(=O)(=O)OCC(=O)Nc2ccc(C(=O)O)c(O)c2)cc1 [S3I-201] |  | tumor response (in words) [3]: tumor regression
C[C@@H]1C[C@@H]([C@H](O)CC2CC(=O)NC(=O)C2)C(=O)[C@@H](C)C1 [cycloheximide] |  | steady state concentration of hGH in the cells [4]: decreased
pegvisomant |  | decrease in tumor weight compared to controls [5]: 44%; decrease in tumor-volume compared to controls [5]: 39%
